Measured values from patent publication US4028399A, “Carbamate” (priority 1969, dated 1977).

tested on: houseflies; format: in vivo, common houseflies; settings: 1 mm^3 acetonic solution to ventral abdomen under CO2 narcosis; kill rate after 4 hours
Protocol: ADMINISTRATION TEST WITH COMMON HOUSEFLIES
1 mm^3 of the acetonic solution of the active ingredients is administered to the ventral abdomen of houseflies under CO2 narcosis. The kill rate on the insects thus treated is determined after 4 hours, from which the mortality curve is calculated.

SMILES	LD50
CNC(=O)Oc1cc(C)c(C)cc1Cl [Comparative substance III, 3,4-dimethyl-6-chloro-N-methylcarbamate]	10.0 /fly
CCc1cc(CC)cc(OC(=O)NC)c1 [3,5-diethyl-phenyl-N-methylcarbamate]	0.12 /fly
CNC(=O)Oc1cc(C)cc(C(C)C)c1 [Comparative substance II, 3-isopropyl-5-methyl-N-methylcarbamate]	0.26 /fly
